Measured values reported in US9751885B2, “Cyclopropanamine compound and use thereof” (Takeda Pharmaceutical Company Limited, priority 2012, dated 2017).
Counter-ions that a name gives are not always drawn.

What was measured:
human LSD1(172-833) = human LSD1(172-833) (Homo sapiens (Human), UniProt O60341); test: Measurement of LSD1 inhibitory activity (time-resolved fluorescence, biotin-histone H3 mono methylated K4 peptide); type: biochemical
Procedure: When the turbidity reached 500 Klett units, the culture temperature was changed to 16° C., IPTG (Isopropyl β-D-1-thiogalactopyranoside) having a final concentration of 0.5 mM was added to induce expression, and the cells were cultured further for 14 hr. The culture medium was centrifuged at 6,000 g for 15 min, and Escherichia coil pellets were recovered.
Using Branson ultrasonic disintegrator, the suspension was disrupted by ultrasonication for 3 min, and centrifuged at 33,000 g for 60 min, and the supernatant was recovered. […] It was concentrated to 10 mL with AmiconUltra (NWCO 30K) (Millipore Japan), and purified with HiLoad 26/60 Superdex 200 pg column (GE Healthcare) equilibrated with Buffer A to give hLSD1 purified product (8.4 mg). The protein concentration of hLSD1 was measured by BCA Protein Assay Kit (Thermo Fisher Scientific K.K.) using bovine serum albumin as the standard.
(5) Measurement of LSD1 Inhibitory Activity
After reaction at room temperature for 5 min, 1 mM 2-PCPA solution was added 5 μL to terminate the reaction. A detection solution ([…] potassium fluoride, 0.1% BSA) containing europium-labeled anti-histone H3 antibody (Wako Pure Chemical Industries, Ltd.) and Streptavidin-XL665 (Cisbio) was further added by 5 μL, and the mixture was left standing for 60 min.

MAO-B enzyme = MAO-B enzyme (Homo sapiens (Human), UniProt P27338); test: Measurement of MAO-B inhibitory activity (MAO-Glo Assay); conditions: read-out: MAO-B IC50 value;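 note: luminescence read-out, compound preincubated 10 min with enzyme then reacted 60 min at room temperature, inhibition relative to enzyme reaction without compound, blank lacking enzyme and compound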
MAO-A enzyme = MAO-A enzyme (Homo sapiens (Human), UniProt P21397); test: Measurement of MAO-A inhibitory activity (MAO-Glo Assay); type: biochemical
Chain of MAO-A enzyme (P21397 whole entry): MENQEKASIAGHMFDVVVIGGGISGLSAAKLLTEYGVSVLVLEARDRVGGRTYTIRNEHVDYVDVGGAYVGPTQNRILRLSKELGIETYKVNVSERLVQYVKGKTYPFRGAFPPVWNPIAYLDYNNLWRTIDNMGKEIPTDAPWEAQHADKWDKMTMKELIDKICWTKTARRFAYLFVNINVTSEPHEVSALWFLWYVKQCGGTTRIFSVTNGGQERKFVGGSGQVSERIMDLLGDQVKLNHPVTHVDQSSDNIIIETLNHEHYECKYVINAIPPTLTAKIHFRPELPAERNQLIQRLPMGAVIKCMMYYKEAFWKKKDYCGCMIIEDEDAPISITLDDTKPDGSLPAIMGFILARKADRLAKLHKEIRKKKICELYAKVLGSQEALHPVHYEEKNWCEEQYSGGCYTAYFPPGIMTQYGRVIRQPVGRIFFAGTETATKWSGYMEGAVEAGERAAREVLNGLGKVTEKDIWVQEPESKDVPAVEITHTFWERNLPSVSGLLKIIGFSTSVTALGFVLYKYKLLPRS
Procedure: The MAO-A inhibitory activity evaluation described below followed the protocol of MAO-Glo (registered trademark) Assay of Promega KK.
A test compound dissolved in 4% DMSO was added by 12.5 μL to 25 μL reaction solution (100 mM HEPES (pH 7.5), 5% glycerol) containing 400 ng of MAO-A enzyme (Sigma-Aldrich Co. LLC.), and the mixture was reacted at room temperature for 10 min. […] After reaction at room temperature for 60 min, Luciferine detection reagent (Promega KK) (50 μL) was added to terminate the reaction. After reaction at room temperature for min with stirring, the luminescence was measured by Envision (PerkinElmer). The MAO-A inhibitory rate (%) of the test compound was calculated by the following formula. inhibitory rate(%)=(1−(test compound count−blank)÷(control−blank))×100
The count of the MAO-A enzyme reaction mixture under compound non-addition conditions is indicated as control, and the count under compound non-addition and MAO-A enzyme non-addition conditions is indicated as blank.

Chain of MAO-B enzyme (P27338 whole entry): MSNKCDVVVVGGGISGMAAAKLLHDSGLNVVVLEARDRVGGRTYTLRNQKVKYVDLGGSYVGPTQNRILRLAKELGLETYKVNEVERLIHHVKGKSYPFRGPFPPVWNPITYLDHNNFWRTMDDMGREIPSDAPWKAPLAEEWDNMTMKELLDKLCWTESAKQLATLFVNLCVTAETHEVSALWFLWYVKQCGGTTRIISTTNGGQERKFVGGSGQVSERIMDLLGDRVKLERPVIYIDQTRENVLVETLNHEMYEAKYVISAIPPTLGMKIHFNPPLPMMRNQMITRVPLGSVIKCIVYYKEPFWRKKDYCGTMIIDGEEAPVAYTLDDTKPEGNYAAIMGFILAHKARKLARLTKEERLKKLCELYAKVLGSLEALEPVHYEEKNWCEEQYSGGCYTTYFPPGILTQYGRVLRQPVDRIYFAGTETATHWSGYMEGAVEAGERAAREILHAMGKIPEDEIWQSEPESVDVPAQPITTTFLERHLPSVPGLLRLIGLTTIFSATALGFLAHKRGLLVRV

SMILES	IC50 (human LSD1(172-833))	IC50 (MAO-B enzyme)	IC50 (MAO-A enzyme)
N#Cc1cccc(CNC(=O)c2ccc([C@@H]3C[C@H]3NCC3CC3)cc2)c1 (relative stereo) [Example 25, N-(3-cyanobenzyl)-4-(trans-2-((cyclopropylmethyl)amino)cyclopropyl)benzamide trifluoroacetate]	< 0.1 µM	> 10 µM	> 10 µM
COc1ccc(CN[C@@H]2C[C@H]2c2ccc(C(=O)NCc3ccccc3)cc2)cc1 (relative stereo) [Example 35, N-benzyl-4-(trans-2-((4-methoxybenzyl)amino)cyclopropyl)benzamide trifluoroacetate]	< 0.1 µM	> 10 µM	3.1 µM
COc1ccc(F)c(CN[C@@H]2C[C@H]2c2ccc(C(=O)NCc3ccccc3)cc2)c1 (relative stereo) [Example 40, N-benzyl-4-(trans-2-((2-fluoro-5-methoxybenzyl)amino)cyclopropyl)benzamide trifluoroacetate]	< 0.1 µM	> 10 µM	> 10 µM
Cc1cc(NC(=O)c2cccc([C@@H]3C[C@H]3NCC3CCOCC3)c2)on1 (relative stereo) [Example 92, N-(3-methyl-1,2-oxazol-5-yl)-3-(trans-2-((tetrahydro-2H-pyran-4-ylmethyl)amino)cyclopropyl)benzamide hydrochloride]	< 0.1 µM	> 10 µM	> 10 µM
CC(C)(C)n1cc(NC(=O)c2cccc([C@@H]3C[C@H]3NCC3CCOCC3)c2)cn1 (relative stereo) [Example 89, N-(1-tert-butyl-1H-pyrazol-4-yl)-3-(trans-2-((tetrahydro-2H-pyran-4-ylmethyl)amino)cyclopropyl)benzamide dihydrochloride]	< 0.1 µM	> 10 µM	> 10 µM
O=C(Nc1ccc(Oc2ccc(F)cc2)nc1)c1cccc([C@@H]2C[C@H]2NCC2CC2)c1 (relative stereo) [Example 137, 3-(trans-2-((cyclopropylmethyl)amino)cyclopropyl)-N-(6-(4-fluorophenoxyl)pyridin-3-yl)benzamide bis(trifluoroacetate)]	< 0.1 µM	> 10 µM	> 10 µM
O=C(NC1CCCC1)c1cccc([C@@H]2C[C@H]2NC2CCN(C3CC3)CC2)c1 (relative stereo) [Example 199, N-cyclopentyl-3-(trans-2-((1-cyclopropylpiperidin-4-yl)amino)cyclopropyl)benzamide dihydrochloride]	< 0.1 µM	> 10 µM	> 10 µM
CN1CCC(N[C@@H]2C[C@H]2c2cccc(C(=O)NC3CCCC3)c2)CC1 (relative stereo) [Example 200, N-cyclopentyl-3-(trans-2-((1-methylpiperidin-4-yl)amino)cyclopropyl)benzamide dihydrochloride]	< 0.1 µM	> 10 µM	> 10 µM
Cn1cc(NC(=O)c2ccc([C@@H]3C[C@H]3N)cc2)cn1 (relative stereo) [Example 51, 4-(trans-2-aminocyclopropyl)-N-(1-methyl-1H-pyrazol-4-yl)benzamide dihydrochloride]	< 0.1 µM	> 10 µM	0.83 µM
Cc1ccc(CN[C@@H]2C[C@H]2c2ccc(C(=O)NCc3ccccc3)cc2)cc1 (relative stereo) [Example 34, N-benzyl-4-(trans-2-((4-methylbenzyl)amino)cyclopropyl)benzamide trifluoroacetate]	< 0.1 µM	> 10 µM	4.4 µM
O=C(NCc1ccc(N2CCCC2=O)cc1)c1ccc([C@@H]2C[C@H]2NCC2CC2)cc1 (relative stereo) [Example 27, 4-(trans-2-((cyclopropylmethyl)amino)cyclopropyl)-N-(4-(2-oxopyrrolidin-1-yl)benzyl)benzamide trifluoroacetate]	< 0.1 µM	> 10 µM	> 10 µM
O=C(NC1CCC(F)(F)CC1)c1cccc([C@@H]2C[C@H]2NC2CCN(C3CC3)CC2)c1 (relative stereo) [Example 208, 3-(trans-2-((1-cyclopropylpiperidin-4-yl)amino)cyclopropyl)-N-(4,4-difluorocyclohexyl)benzamide dihydrochloride]	< 0.1 µM	> 10 µM	> 10 µM
CN(C)c1ccccc1CN[C@@H]1C[C@H]1c1ccc(C(=O)NCc2ccccc2)cc1 (relative stereo) [Example 42, N-benzyl-4-(trans-2-((2-(dimethylamino)benzyl)amino)cyclopropyl)benzamide bis(trifluoroacetate)]	< 0.1 µM	> 10 µM	3.4 µM
CC(=O)N1CCC(N[C@@H]2C[C@H]2c2cccc(C(=O)Nc3cnn(Cc4ccc(F)cc4)c3)c2)CC1 (relative stereo) [Example 218, 3-(trans-2-((1-acetylpiperidin-4-yl)amino)cyclopropyl)-N-(1-(4-fluorobenzyl)-1H-pyrazol-4-yl)benzamide dihydrochloride]	< 0.1 µM	> 10 µM	> 10 µM
Cn1cc(NC(=O)c2ccc([C@@H]3C[C@H]3NCC3CC3)cc2)cn1 (relative stereo) [Example 53, 4-(trans-2-((cyclopropylmethyl)amino)cyclopropyl)-N-(1-methyl-1H-pyrazol-4-yl)benzamide dihydrochloride]	< 0.1 µM	> 10 µM	> 10 µM
O=C(NCc1cccc(Oc2cnccn2)c1)c1ccc([C@@H]2C[C@H]2NCC2CC2)cc1 (relative stereo) [Example 29, 4-(trans-2-((cyclopropylmethyl)amino)cyclopropyl)-N-(3-(pyrazin-2-yloxy)benzyl)benzamide bis(trifluoroacetate)]	< 0.1 µM	> 10 µM	7.3 µM
N[C@@H]1C[C@H]1c1ccc(C(=O)NCc2ccccc2)cc1 (relative stereo) [Example 2, 4-(trans-2-aminocyclopropyl)-N-benzylbenzamide hydrochloride]	< 0.1 µM	> 10 µM	0.1 µM
O=C(NCc1ccccc1)c1ccc([C@@H]2C[C@H]2NCc2ccccc2F)cc1 (relative stereo) [Example 39, N-benzyl-4-(trans-2-((2-fluorobenzyl)amino)cyclopropyl)benzamide trifluoroacetate]	< 0.1 µM	> 10 µM	6.6 µM
O=C(NCc1ccncc1)c1ccc([C@@H]2C[C@H]2NCC2CC2)cc1 (relative stereo) [Example 17, 4-(trans-2-((cyclopropylmethyl)amino)cyclopropyl)-N-(pyridin-4-ylmethyl)benzamide bis(trifluoroacetate)]	< 0.1 µM	> 10 µM	> 10 µM
Cc1cc(C)nc(Sc2cccc(NC(=O)c3cccc([C@@H]4C[C@H]4NCC4CC4)c3)c2)n1 (relative stereo) [Example 132, 3-(trans-2-((cyclopropylmethyl)amino)cyclopropyl)-N-(3-((4,6-dimethylpyrimidin-2-yl)sulfanyl)phenyl)benzamide trifluoroacetate]	< 0.1 µM	> 10 µM	> 10 µM
N#Cc1cccc(CN[C@@H]2C[C@H]2c2ccc(C(=O)NCc3ccccc3)cc2)c1 (relative stereo) [Example 43, N-benzyl-4-(trans-2-((3-cyanobenzyl)amino)cyclopropyl)benzamide trifluoroacetate]	< 0.1 µM	> 10 µM	1.5 µM
O=C(Nc1ccc2nccnc2c1)c1cccc([C@@H]2C[C@H]2NCC2CC2)c1 (relative stereo) [Example 143, 3-(trans-2-((cyclopropylmethyl)amino)cyclopropyl)-N-(quinoxalin-6-yl)benzamide bis(trifluoroacetate)]	< 0.1 µM	> 10 µM	2.1 µM
CN(Cc1ccccc1)C(=O)c1ccc([C@@H]2C[C@H]2N)cc1 (relative stereo) [Example 9, 4-(trans-2-aminocyclopropyl)-N-benzyl-N-methylbenzamide hydrochloride]	< 0.1 µM	> 10 µM	0.12 µM
O=C(Nc1cnn(CC(F)(F)F)c1)c1cccc([C@@H]2C[C@H]2NCC2CC2)c1 (relative stereo) [Example 151, 3-(trans-2-((cyclopropylmethyl)amino)cyclopropyl)-N-(1-(2,2,2-trifluoroethyl)-1H-pyrazol-4-yl)benzamide hydrochloride]	< 0.1 µM	> 10 µM	> 10 µM
O=C(Nc1ccccc1)c1ccc([C@@H]2C[C@H]2NCC2CC2)cc1 (relative stereo) [Example 8, 4-(trans-2-((cyclopropylmethyl)amino)cyclopropyl)-N-phenylbenzamide hydrochloride]	< 0.1 µM	4.6 µM	8.3 µM
O=C(c1ccc([C@@H]2C[C@H]2NCC2CC2)cc1)N1Cc2cccnc2C1 (relative stereo) [Example 20, (4-(trans-2-((cyclopropylmethyl)amino)cyclopropyl)phenyl)(5,7-dihydro-6H-pyrrolo[3,4-b]pyridin-6-yl)methanone bis(trifluoroacetate)]	< 0.1 µM	> 10 µM	> 10 µM
